The results in this text go back to US9096639B2, “17-hydroxy-17-pentafluorethyl-estra-4,9(10)-dien-11-acyloxyalkylene phenyl derivatives, methods for the production thereof and use thereof for treating diseases” (Bayer Intellectual Property GmbH, priority 2009, dated 2015).

The nature of series [1]: Determination of stability in rat plasma. In kind it is in vitro ADME. The following applies: 37° C., read-out: Stability t1/2 in rat plasma (converted). Here is the method:
(§1) A stock solution of 1.0 mg of the substance to be tested in a 9:1 mixture of acetonitrile and dimethyl sulphoxide was prepared. 20 μl of this stock solution were added at 37° C. to 1 ml of human plasma or rat plasma. To determine the content, 100 μl samples were each taken at different times. The enzyme activity was blocked by adding 300 μl of acetonitrile, the samples were centrifuged at 5000 rpm over 10 minutes and, in the supernatant, the content of ester and hydrolysis products (8S,11R,13S,14S,17S)-17-hydroxy-11-[4-((R)-1-hydroxyethyl)phenyl]-1 3-methyl-17-pentafluoroethyl-1,2,6,7,8,11,12,13,14,15,16,17-dodecahydrocyclopenta[a]phenanthren-3-one and/or (8S,11R,13S,14S,17S)-17-hydroxy-11-[4-((S)-1-hydroxyethyl)phenyl]-13-methyl-17-pentafluoroethyl-1,2,6,7,8,11,12,13,14,15,16,17-dodecahydrocyclopenta[a]phenanthrene-3-one was determined by HPLC. The concentration-time curves were used to calculate the degradation kinetics. The stability of the substance tested was reported as the half-life.

Series [2] can be described thus: Determination of hydrolytic stability (5:1 dioxane/buffer, HPLC). The following applies: 5:1 dioxane/buffer solution, test ended after 24 or 192 hours, read-out: Hydrolytic stability t1/2. In kind it is physicochemical. How it is done: The ester to be analyzed was dissolved in each case in a 5:1 mixture of dioxane and buffer solution (pH 1.2, pH 5.0 or pH 8.0) at 23° C. At different times, the content of ester and hydrolysis products (8S,11R,13S,14S,1 7S)-17-hydroxy-11-[4-((R)-1-hydroxyethyl)phenyl]-13-methyl-17-pentafluoroethyl-1,2,6,7,8,11,12,13,14,15,16,17-dodecahydrocyclopenta[a]phenanthren-3-one and/or (8S,11R,13S,14S,17S)-17-hydroxy-11-[4-((S)-1-hydroxyethyl)phenyl]-1 3-methyl-17-pentafluoroethyl-1,2,6,7,8,11,12,13,14,15,16,17-dodecahydrocyclopenta[a]phenanthren-3-one was determined by HPLC. The test was ended after 24 hours or 192 hours.

A short description of series [3]: Determination of hydrolytic stability in synthetic gastric juice (pH 1.2 buffer with pepsin). It is filed as in vitro ADME. The following applies: 37° C., pH 1.2 with added pepsin, test ended after 24 hours, read-out: Hydrolytic stability t1/2 in synthetic gastric juice (converted). How it is done: The esters to be analyzed were dissolved in each case in a buffer solution of pH 1.2 with added pepsin at 37° C. At different times, the content of ester and hydrolysis products (8S,11R,13S,14S,17S)-17-hydroxy-11-[4-((R)-1-hydroxyethyl)phenyl]-1 3-methyl-17-pentafluoroethyl-1,2,6,7,8,11,12,13,14,15,16,17-dodecahydrocyclopenta[a]phenanthren-3-one and/or (8S,11R,13S,14S,17S)-17-hydroxy-11-[4-((S)-1-hydroxyethyl)phenyl]-13-methyl-17-pentafluoroethyl-1,2,6,7,8,11,12,13,14,15,16,17-dodecahydrocyclopenta[a]phenanthren-3-one was determined by HPLC. The test was ended after 24 hours.

Series [4] is described as follows: Determination of stability in human plasma. It is filed as in vitro ADME. How it is done: as §1
Series [5] addresses T1, human progesterone receptor B (Homo sapiens, UniProt P06401).
T1 construct: expressed in transfected cells; host or cells: SK-N-MC human neuroblastoma cells, stably transfected with pRChPR-B-neo and pMMTV-LUC
T1 sequence (P06401 1-933): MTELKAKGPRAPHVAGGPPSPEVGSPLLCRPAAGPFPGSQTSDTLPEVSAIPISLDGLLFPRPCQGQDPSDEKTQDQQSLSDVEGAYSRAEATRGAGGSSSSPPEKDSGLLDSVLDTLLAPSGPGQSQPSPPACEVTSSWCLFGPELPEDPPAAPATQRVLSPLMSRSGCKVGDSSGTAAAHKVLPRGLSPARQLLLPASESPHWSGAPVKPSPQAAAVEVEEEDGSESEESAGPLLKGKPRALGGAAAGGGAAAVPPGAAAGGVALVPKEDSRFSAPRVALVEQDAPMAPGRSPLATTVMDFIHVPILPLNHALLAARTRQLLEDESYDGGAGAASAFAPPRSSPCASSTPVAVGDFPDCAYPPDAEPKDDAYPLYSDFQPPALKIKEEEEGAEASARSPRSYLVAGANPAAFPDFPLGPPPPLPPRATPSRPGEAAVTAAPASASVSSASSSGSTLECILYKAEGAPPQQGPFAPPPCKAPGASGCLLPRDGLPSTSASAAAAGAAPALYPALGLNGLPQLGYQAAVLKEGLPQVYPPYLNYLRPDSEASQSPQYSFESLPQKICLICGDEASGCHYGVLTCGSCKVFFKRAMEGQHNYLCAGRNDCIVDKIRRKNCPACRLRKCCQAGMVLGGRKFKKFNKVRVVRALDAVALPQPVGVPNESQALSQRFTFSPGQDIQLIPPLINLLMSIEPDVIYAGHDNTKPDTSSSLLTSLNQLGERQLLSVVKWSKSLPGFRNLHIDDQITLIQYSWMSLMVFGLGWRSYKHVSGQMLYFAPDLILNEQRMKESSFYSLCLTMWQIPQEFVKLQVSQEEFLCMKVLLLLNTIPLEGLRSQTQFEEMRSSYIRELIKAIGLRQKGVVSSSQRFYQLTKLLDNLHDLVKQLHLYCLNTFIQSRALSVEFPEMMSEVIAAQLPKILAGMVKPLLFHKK
Kind of series: Progesterone receptor transactivation test in stably transfected SK-N-MC cells (PR-B, MMTV-LUC reporter). It is filed as cell-based. The following applies: 0.1 nmol/l promegestone, 24 hours, read-out: PR-B IC50 (antagonistic potency). Here is the method:
Progesterone receptor-antagonistic action in stable transfectants of human neuroblastoma cells (SK-N-MC cells) with the human progesterone A or progesterone B receptor and an MN-LUC reporter construct SK-N-MC cells (human neuroblastoma cells) which have been stably transfected with plasmids expressing the human progesterone receptor B (pRChPR-B-neo) or the human progesterone receptor A (pRChPR-A-neo) and a reporter construct (pMMTV-LUC) were incubated for 24 hours either in the absence (negative control) or in the presence of ascending amounts of the particular test compound (0.01 nmol/l, 0.1 nmol/l, 1 […], 100 nmol/l and […]), in order to determine the agonistic efficacy. As a positive control of the reporter gene induction, the cells were treated with the synthetic gestagen promegestone (0.01 nmol/l, 0.1 nmol/l, 1 nmol/l, 10 nmol/l, 100 nmol/l and […]). To determine the antagonistic activity, the cells were treated with 0.1 nmol/l promegestone and additionally with ascending amounts of the particular test compound (0.01 nmol/l, 0.1 nmol/l, 1 nmol/l, 10 nmol/l, 100 nmol/l and […]). The activity of the reporter gene LUC (LUC=luciferase) was determined in the cell lysates and measured as RLU (relative light units). All measurements are reported as % efficacy and as EC50 and IC50 concentrations.

Where [6] appears, read: 37° C., read-out: Stability t1/2 in human plasma (converted).
[7] abbreviates: method of working example 19, summary statement in description, read-out: half-life in human plasma.

A value given as a limit tells only on which side of the number the result lay.

As to `CC(OC(=O)[C@@H](C)NC(=O)OC(C)(C)C)c1ccc([C@H]2C[C@@]3(C)[C@@H](CC[C@@]3(O)C(F)(F)C(F)(F)F)[C@@H]3CCC4=CC(=O)CCC4=C32)cc1` (mixture of isomers) [Example 6, (R)-2-tert-Butoxycarbonylaminopropionic acid (RS)-1-[4-((8S,11R,13S,-14S,17S)-17-hydroxy-13-methyl-3-oxo-17-pentafluoroethyl-2,3,6,7,8,11,12,13,14,15,16,17-dodecahydro-1H-cyclopenta[a]phenanthren-11-yl)phenyl]ethyl ester], the half-life in series [1] was 43.9 h; in series [2] (pH = 1.2, 23° C.), greater than 24 h; in series [2] (pH = 5.0, 23° C.), greater than 24 h; in series [2] (pH = 8.0, 23° C.), greater than 24 h; in series [3] it was 5.4 h; in series [4] (setting [6]), 491 h. Moreover, in series [4] (setting [7]), the half-life was greater than 100 h. The concentration for half-maximal inhibition (IC50) (as a rule, the midpoint of a concentration-inhibition curve) in series [5] was 0.2 nM.

As for `CC(OC(=O)[C@@H](NC(=O)OC(C)(C)C)C(C)C)c1ccc([C@H]2C[C@@]3(C)C(CC[C@@]3(O)C(F)(F)C(F)(F)F)C3CCC4=CC(=O)CCC4=C32)cc1` (mixture of isomers) [Example 5, (S)-2-tert-Butoxycarbonylamino-3-methylbutyric acid (RS)-1-[4-((8S,11R,-13S,14S,17S)-17-hydroxy-13-methyl-3-oxo-17-pentafluoroethyl-2,3,6,7,8,11,12,13,14,15,-16,17-dodecahydro-1H-cyclopenta[a]phenanthren-11-yl)phenyl]ethyl ester], the half-life is 156 h in series [1]; greater than 192 h in series [2] (pH = 1.2, 23° C.); greater than 192 h in series [2] (pH = 5.0, 23° C.); greater than 192 h in series [2] (pH = 8.0, 23° C.); 3 h in series [3]; greater than 1000 h in series [4] (setting [6]). In series [4] (setting [7]), the half-life is greater than 100 h. Moreover, the IC50 in series [5] is 0.8 nM.

For `CC(=O)O[C@H](C)c1ccc([C@H]2C[C@@]3(C)C(CC[C@@]3(O)C(F)(F)C(F)(F)F)C3CCC4=CC(=O)CCC4=C32)cc1` (mixture of isomers) [Example 1, acetic acid (RS)-1-[4-((8S,11R,13S,14S,17S)-17-hydroxy-13-methyl-3-oxo-17-pentafluoroethyl-2,3,6,7,8,11,12,13,14,15,16,17-dodecahydro-1H-cyclopenta[a]phenanthren-11-yl)phenyl]ethyl ester], the half-life in series [1] is 57.5 h; in series [2] (pH = 1.2, 23° C.), greater than 24 h; in series [2] (pH = 5.0, 23° C.), greater than 24 h; in series [2] (pH = 8.0, 23° C.), greater than 24 h; in series [3], 9.6 h; in series [4] (setting [6]), 609 h. In series [4] (setting [7]), the half-life was greater than 100 h. The IC50 in series [5] is 0.08 nM.

For the compound `CC(OC(=O)CC(C)(C)C)c1ccc([C@H]2C[C@@]3(C)C(CC[C@@]3(O)C(F)(F)C(F)(F)F)C3CCC4=CC(=O)CCC4=C32)cc1` (mixture of isomers) [Example 4, 3,3-Dimethylbutyric acid (RS)-1-[4-((8S,11R,13S,14S,17S)-17-hydroxy-13-methyl-3-oxo-17-pentafluoroethyl-2,3,6,7,8,11,12,13,14,15,16,17-dodecahydro-1H-cyclopenta[a]phenanthren-11-yl)phenyl]ethyl ester], the half-life in series [1] is greater than 1000 h; in series [2] (pH = 1.2, 23° C.), greater than 24 h; in series [2] (pH = 5.0, 23° C.), greater than 24 h; in series [2] (pH = 8.0, 23° C.), greater than 24 h; in series [3], greater than 24 h; in series [4] (setting [6]), greater than 1000 h. Besides, in series [4] (setting [7]), the half-life was greater than 100 h. Also, the IC50 in series [5] was found to be 0.4 nM.

For `CC(C)CC(=O)OC(C)c1ccc([C@H]2C[C@@]3(C)C(CC[C@@]3(O)C(F)(F)C(F)(F)F)C3CCC4=CC(=O)CCC4=C32)cc1` (mixture of isomers) [Example 3, 3-Methylbutyric acid (RS)-1-[4-((8S,11R,13S,14S,17S)-17-hydroxy-13-methyl-3-oxo-17-pentafluoroethyl-2,3,6,7,8,11,12,13,14,15,16,17-dodecahydro-1H-cyclopenta[a]phenanthren-11-yl)phenyl]ethyl ester], the half-life in series [1] is 89 h; in series [2] (pH = 1.2, 23° C.), greater than 24 h; in series [2] (pH = 5.0, 23° C.), greater than 24 h; in series [2] (pH = 8.0, 23° C.) it was greater than 24 h; in series [3] it was greater than 24 h; in series [4] (setting [6]) it was greater than 1000 h. Moreover, in series [4] (setting [7]), the half-life is greater than 100 h. Besides, the half-inhibitory concentration (IC50) in series [5] amounted to 0.2 nM.

Turning to `CC(OC(=O)[C@H](C)NC(=O)OC(C)(C)C)c1ccc([C@H]2C[C@@]3(C)C(CC[C@@]3(O)C(F)(F)C(F)(F)F)C3CCC4=CC(=O)CCC4=C32)cc1` (mixture of isomers) [Example 7, (S)-2-tert-Butoxycarbonylaminopropionic acid (RS)-1-[4-((8S,11R,13S,-14S,17S)-17-hydroxy-13-methyl-3-oxo-17-pentafluoroethyl-2,3,6,7,8,11,12,13,14,15,16,17-dodecahydro-1H-cyclopenta[a]phenanthren-11-yl)phenyl]ethyl ester], the half-life in series [1] is 3.1 h; in series [2] (pH = 1.2, 23° C.), greater than 24 h; in series [2] (pH = 5.0, 23° C.), greater than 24 h; in series [2] (pH = 8.0, 23° C.), greater than 24 h; in series [3] it was 4.4 h; in series [4] (setting [6]), greater than 1000 h. For the same compound, in series [4] (setting [7]), the half-life is greater than 100 h. For the same compound, the IC50 in series [5] amounted to 0.1 nM.
